From patent US8563729B2, “Thienopyridone derivatives as AMP-activated protein kinase (AMPK) activators” (Merck Patent GmbH, priority 2008, dated 2013)

How the values were obtained:
[1] = biological target: T1, AMPK protein (recombinant α1β1γ2) (Homo sapiens, UniProt Q13131+Q9Y478); assay: AMPK enzymatic activity (Delfia, AMARA peptide substrate); assay type: biochemical; details: compound 30 μM vs AMP 30 μM; 125 μM ATP; ratio 90% or higher = direct activator
T1 construct: made in house; host or cells: E. coli
T1 sequence (Q13131 whole entry): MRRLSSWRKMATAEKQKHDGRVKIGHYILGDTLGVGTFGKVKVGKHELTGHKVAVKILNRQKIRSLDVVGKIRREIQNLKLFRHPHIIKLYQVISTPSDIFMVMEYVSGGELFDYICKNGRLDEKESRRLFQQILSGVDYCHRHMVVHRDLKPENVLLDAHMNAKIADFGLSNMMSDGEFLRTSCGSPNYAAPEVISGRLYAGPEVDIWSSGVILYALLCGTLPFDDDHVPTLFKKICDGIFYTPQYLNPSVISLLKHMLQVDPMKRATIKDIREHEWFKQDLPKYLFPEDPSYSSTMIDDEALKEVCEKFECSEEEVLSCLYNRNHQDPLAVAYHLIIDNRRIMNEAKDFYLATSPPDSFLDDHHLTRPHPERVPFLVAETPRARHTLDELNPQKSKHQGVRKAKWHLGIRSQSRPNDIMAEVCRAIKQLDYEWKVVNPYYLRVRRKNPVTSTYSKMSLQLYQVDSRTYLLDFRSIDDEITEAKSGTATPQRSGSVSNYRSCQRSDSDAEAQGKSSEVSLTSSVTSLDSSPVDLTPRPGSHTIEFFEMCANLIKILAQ
T1 sequence (Q9Y478 whole entry): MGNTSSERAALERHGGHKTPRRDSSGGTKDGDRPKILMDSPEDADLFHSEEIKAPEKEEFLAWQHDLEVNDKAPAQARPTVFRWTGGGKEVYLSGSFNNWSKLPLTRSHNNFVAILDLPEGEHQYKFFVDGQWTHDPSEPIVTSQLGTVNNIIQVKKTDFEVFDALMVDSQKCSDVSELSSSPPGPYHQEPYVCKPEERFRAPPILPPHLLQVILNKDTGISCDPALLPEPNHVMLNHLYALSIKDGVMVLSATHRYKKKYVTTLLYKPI
T1 sequence (Q9UGJ0 whole entry partner): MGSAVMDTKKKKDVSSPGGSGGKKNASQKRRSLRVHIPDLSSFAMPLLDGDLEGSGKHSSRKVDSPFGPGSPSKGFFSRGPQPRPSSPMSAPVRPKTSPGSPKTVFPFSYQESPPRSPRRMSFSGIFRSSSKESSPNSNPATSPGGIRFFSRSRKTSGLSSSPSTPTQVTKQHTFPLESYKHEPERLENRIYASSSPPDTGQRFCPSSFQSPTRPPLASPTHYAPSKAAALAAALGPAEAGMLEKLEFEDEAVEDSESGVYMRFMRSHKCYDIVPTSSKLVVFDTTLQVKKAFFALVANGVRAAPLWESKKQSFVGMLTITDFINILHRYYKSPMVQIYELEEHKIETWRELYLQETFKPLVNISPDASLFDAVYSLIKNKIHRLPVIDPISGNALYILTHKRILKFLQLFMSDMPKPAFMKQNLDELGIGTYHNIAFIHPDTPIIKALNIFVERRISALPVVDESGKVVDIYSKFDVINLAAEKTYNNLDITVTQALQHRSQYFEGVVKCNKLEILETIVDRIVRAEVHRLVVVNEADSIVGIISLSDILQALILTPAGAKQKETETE
Summary of the method: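 Human α1β1γ2 AMPK expressed in E. coli, reactivated in vitro by LKB1, assayed in 50 mM Hepes pH 7.4 with 125 μM ATP and AMARA peptide for 30 min at room temperature; phosphorylation detected by Delfia anti-phosphoserine antibody. Activity = % of basal control at 30 μM compound relative to that of 30 μM AMP.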

H-2 Kb cells = assay: Glucose uptake in H-2 Kb cells (in vitro cellular test); assay type: cell-based, mouse; details: H-2 Kb cells differentiated in muscle, 4 hours incubation, 2-deoxy-D-[1,2 3H] glucose uptake 10 min
Procedure: Glucose Uptake in H-2 Kb Cells (In Vitro Cellular Test)
The following cellular test allows the determination of the effect of AMPK activators such as compounds of formula (I) onto glucose uptake in a muscle cellular model.
H-1-2 Kb cells derived from heterozygous H-2 Kb tsA58 transgenic mouse were grown in 24-well in plates coated with matrigel and were cultured at 33° C. for 4 days under permissive conditions, as described previously by Fryer et al. (Diabetes 49 (12): 1978, 2000).
For differentiation in muscle, cells were switched to non-permissive culture conditions (37° C. in the absence of interferon-γ). After 3 days, cells were incubated for 4 hours in DMEM 1 g/l glucose culture medium containing different concentrations of the tested molecules. Then glucose uptake was measured by incubating the cells for 10 min with radiolabelled 2-deoxy-D-[1,2 ^3H] glucose. Glucose uptake was terminated by rapidly washing the plates 2 times with ice-cold NaCl 0.9%. The cells were then solubilized in 0.1N NaOH for 30 min. Radioactivity was determined by liquid scintillation counting.
N°: Number of the molecule
Activity (table III): Concentration of compound (I) for a glucose uptake equal or higher to glucose uptake induced by insulin (170 nM)
^++ or **concentration of compound (I) ≦10 micro Molar
^+ or *concentration of compound (I) >10 micro Molar

Row | Compound | activity: Ratio between the % of control (basal activity) of compound of formula (I) at 30 μM and the % of control (basal activity) of AMP at 30 μM [1] | Activity (table III): Concentration of compound (I) for a glucose uptake equal or higher to glucose uptake induced by insulin (170 nM) (H-2 Kb cells)
1 | COc1ccc(-c2c(O)c3c(-c4ccccc4)c(Cl)sc3[nH]c2=O)cc1 [Compound 157] | 147% | ** (^++ or **concentration of compound (I) ≦10 micro Molar)
2 | O=c1[nH]c2sc(Br)c(-c3ccccc3)c2c(O)c1-c1ccccc1 [Compound 161] | 113% | ** (^++ or **concentration of compound (I) ≦10 micro Molar)
3 | O=c1[nH]c2sc(Cl)c(-c3ccccc3)c2c(O)c1-c1ccccc1 [Compound 162] | 107% | ** (^++ or **concentration of compound (I) ≦10 micro Molar)
4 | Cc1ccccc1-c1c(O)c2c(-c3ccccc3)c(Cl)sc2[nH]c1=O [Compound 164] | 354% | + (^+ or *concentration of compound (I) >10 micro Molar)
5 | O=c1[nH]c2sc(Cl)c(-c3ccccc3)c2c(O)c1-c1ccccc1F [Compound 165] | 238% | + (^+ or *concentration of compound (I) >10 micro Molar)
6 | O=c1[nH]c2sc(Cl)c(-c3ccccc3)c2c(O)c1-c1cccnc1 [Compound 166] | 225% | + (^+ or *concentration of compound (I) >10 micro Molar)
7 | COc1ccc(-c2c(O)c3c(-c4ccccc4)c(Cl)sc3[nH]c2=O)cn1 [Compound 167] | 592% | ++ (^++ or **concentration of compound (I) ≦10 micro Molar)
8 | O=c1[nH]c2sc(Cl)c(-c3ccccc3)c2c(O)c1-c1cccs1 [Compound 168] | 174% | ++ (^++ or **concentration of compound (I) ≦10 micro Molar)
9 | O=c1[nH]c2sc(Cl)c(-c3ccccc3)c2c(O)c1-c1ccsc1 [Compound 169] | 196% | ++ (^++ or **concentration of compound (I) ≦10 micro Molar)
10 | O=c1[nH]c2sc(Cl)c(-c3ccccc3)c2c(O)c1-c1ccc(C(F)(F)F)cc1 [Compound 171] | 147% | + (^+ or *concentration of compound (I) >10 micro Molar)
11 | O=c1[nH]c2sc(Cl)c(-c3ccccc3)c2c(O)c1-c1ccc(F)cc1 [Compound 172] | 153% | + (^+ or *concentration of compound (I) >10 micro Molar)
12 | O=c1[nH]c2sc(Cl)c(-c3ccccc3)c2c(O)c1-c1ccc(Cl)cc1 [Compound 173] | 160% | ++ (^++ or **concentration of compound (I) ≦10 micro Molar)
13 | Cc1ccc(-c2c(O)c3c(-c4ccccc4)c(Cl)sc3[nH]c2=O)cc1 [Compound 174] | 245% | + (^+ or *concentration of compound (I) >10 micro Molar)
14 | O=c1[nH]c2sc(Cl)c(-c3ccccc3)c2c(O)c1-c1cccc(F)c1 [Compound 175] | 252% | + (^+ or *concentration of compound (I) >10 micro Molar)
15 | Cc1cccc(-c2c(O)c3c(-c4ccccc4)c(Cl)sc3[nH]c2=O)c1 [Compound 176] | 245% | ++ (^++ or **concentration of compound (I) ≦10 micro Molar)
16 | COc1ccc(-c2c(O)c3c(-c4ccccc4)c(Cl)sc3[nH]c2=O)cc1OC [Compound 177] | 234% | ++ (^++ or **concentration of compound (I) ≦10 micro Molar)
17 | O=c1[nH]c2sc(Cl)c(-c3ccc(Cl)cc3)c2c(O)c1-c1ccccc1 [Compound 178] | 138% | ++ (^++ or **concentration of compound (I) ≦10 micro Molar)
18 | CCc1ccc(-c2c(Cl)sc3[nH]c(=O)c(-c4ccccc4)c(O)c23)cc1 [Compound 181] | 559% | ++ (^++ or **concentration of compound (I) ≦10 micro Molar)
19 | CC(C)c1ccc(-c2c(Cl)sc3[nH]c(=O)c(-c4ccccc4)c(O)c23)cc1 [Compound 182] | 165% | + (^+ or *concentration of compound (I) >10 micro Molar)
20 | CCCc1ccc(-c2c(Cl)sc3[nH]c(=O)c(-c4ccccc4)c(O)c23)cc1 [Compound 183] | 146% | + (^+ or *concentration of compound (I) >10 micro Molar)
21 | O=c1[nH]c2sc(Cl)c(-c3ccc4c(Cl)cccc4c3O)c2c(O)c1-c1ccccc1 [Compound 184] | 167% | ++ (^++ or **concentration of compound (I) ≦10 micro Molar)
22 | O=c1[nH]c2sc(Cl)c(-c3ccc4ccccc4c3O)c2c(O)c1-c1ccc(F)cc1 [Compound 185] | 284% | ++ (^++ or **concentration of compound (I) ≦10 micro Molar)
23 | Cc1ccc(-c2c(O)c3c(-c4ccc5ccccc5c4O)c(Cl)sc3[nH]c2=O)cc1 [Compound 186] | 192% | ++ (^++ or **concentration of compound (I) ≦10 micro Molar)
